Measured values as given in patent US20090264415A2 (priority 2004, published 2009).
Where two headings read alike, the source gives them in different places.

Legend:
[1] = test system: production of human TNF-α by PBMC in response to LPS; assay: TNF-α assay (LPS-stimulated PBMC, sandwich ELISA); format: cell-based; conditions: Homo sapiens, PBMC; LPS 1 μg/ml, 72 hours; read-out: TNF α
Procedure: Peripheral blood mononuclear cells (herein referred as PBMC), in response to stimulation by lipopolysaccharide (hereinafter LPS), a gram-negative bacterial endotoxin, produce various […], in particular human TNF-α. Inhibition of the activation of PBMC can therefore be measured by the level of suppression of the production of TNF-α by PBMC in response to stimulation by LPS. Inhibition measurement was performed as follows: PBMC were isolated from heparinized peripheral blood by density gradient centrifugation over Lymphoprep (commercially available from Nycomed, Norway). LPS was then added to the PMBC suspension in complete medium (10^6 cells/ml) at a final concentration of 1 μg/ml. The pteridine derivative to be tested was added at different concentrations (0.1 μM, 1 μM and 10 μM) and the cells were incubated at 37° C. for 72 hours in 5% CO2. The supernatants were collected, then TNF-α concentrations were measured with respectively an anti-TNF-α antibody in a sandwich ELISA (Duo Set ELISA human TNFα, commercially available from R&D Systems, United Kingdom). The colorimetric reading of the ELISA was measured by a Multiskan RC plate reader (commercially available from ThermoLabsystems, Finland) at 450 nm (reference wavelength: 690 nm). Data analysis was performed with Ascent software 2.6. (also from ThermoLabsystems, Finland): a standard curve (recombinant human TNFα) was drawn and the amount (pg/ml) of each sample on the standard curve was determined. The % suppression of human TNFα production by the pyrido[3,2-d]pyrimidine derivatives of the invention was calculated using the formula: [formula]

[2] = test system: peripheral blood mononuclear cells (PBMC) stimulated with allogeneic PBMC or EBV-transformed human B cells (RPMI1788); assay: Mixed lymphocyte reaction (MLR) assay; format: cell-based
Procedure, shortened: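 Responder PBMC co-cultured in triplicate with 30 Gy-irradiated allogeneic PBMC or RPMI1788 B cells plus compound (DMSO stock 10 mM, diluted in medium). After 5 days at 37° C, 1 μCi [3H]-thymidine added for 16 h more; incorporated cpm counted and proliferation inhibition calculated.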

[3] = Homo sapiens, RPMI-1788, MLR assay of example 319, read-out: MLR IC50
[4] = 50% suppression of the MLR, [3H]-thymidine incorporation, read-out: MLR

| Structure (SMILES) | IC50 [2, 3] [nM] | further results |
| --- | --- | --- |
| COc1ccc(-c2ccc3nc(N)nc(N4CCN(CC(=O)N5CCOCC5)CC4)c3c2)cc1OC [Example 275, 2-amino-4-[N-(piperazino)-acetyl-morpholino]-6-(3,4-dimethoxyphenyl)-pyrido[3,2-d]pyrimidine] | – | IC50 [1]: 97 nM |
| Nc1nc(N2CCN(CC(=O)NCCc3ccccc3)CC2)c2nc(-c3ccc(F)cc3)ccc2n1 [Example 459, 2-amino-4-[4-[2-(phenyl)ethylcarbamylmethyl]-piperazin-1-yl]-6-(4-fluorophenyl)-pyrido[3,2-f]pyrimidine] | 500 | – |
| Nc1nc(NC2CCN(C(=O)COc3ccc(Cl)cc3)CC2)c2nc(-c3ccc(F)cc3)ccc2n1 [Example 480, 2-amino-4-[1-(4-chlorophenoxyacetyl)piperid-4-ylamino]-6-(4-fluorophenyl)-pyrido[3,2-d]pyrimidine] | 2200 | – |
| Nc1nc(N2CCN(C(=O)COc3ccc(Cl)cc3)CC2)c2nc(-c3ccc(C(F)(F)F)cc3)ccc2n1 [Example 399, 2-amino-4-[4-(4-chlorophenoxyacetyl)piperazin-1-yl]-6-(4-trifluoromethylphenyl)-pyrido[3,2-d]pyrimidine] | 500 | – |
| C[C@@H]1CN(C(=O)COc2ccc(Cl)cc2)CCN1c1nc(N)nc2ccc(-c3ccc(F)cc3)nc12 [Example 482, (R)-2-amino-4-[4-(4-chlorophenoxyacetyl)-2-methylpiperazin-1-yl]-6-(4-fluorophenyl)-pyrido[3,2-d]pyrimidine] | 500 | – |
| Nc1nc(N2CCN(C(=O)COc3ccc(Cl)cc3)CC2)c2nc(-c3ccccc3Cl)ccc2n1 [Example 430, 2-amino-4-[4-(4-chlorophenoxyacetyl)piperazin-1-yl]-6-(2-chlorophenyl)pyrido-[3,2-d]pyrimidine] | 40 | – |
| Nc1nc(N2CCOCC2)c2nc(-c3ccc(F)cc3)ccc2n1 [Example 245, 2-amino-4-morpholino-6-(4-fluorophenyl)-pyrido[3,2-d]pyrimidine] | – | IC50 ([2]; Homo sapiens, RPMI-1788, 50% suppression of the MLR, [3H]-thymidine incorporation, read-out: MLR): 2300 nM |
| C[C@@H]1CN(C(=O)OC(C)(C)C)CCN1c1nc(N)nc2ccc(-c3ccc(F)cc3)nc12 [Example 481, (R)-4-[2-amino-6-(4-fluorophenyl)-pyrido[3,2-d]pyrimidin-4-yl]-3-methylpiperazine-1-carboxylic acid tert-butyl ester] | > 10000 | – |
| CC(Oc1ccccc1)C(=O)N1CCN(c2nc(N)nc3ccc(-c4ccc(F)cc4)nc23)CC1 (stereo not drawn) [Example 474, 2-amino-4-[4-(2-phenoxypropionyl)piperazin-1-yl]-6-(4-fluorophenyl)-pyrido[3,2-d]pyrimidine] | 1000 | – |
| Cc1cccc(NC(=O)N2CCN(c3nc(N)nc4ccc(-c5ccc(C#N)cc5)nc34)CC2)c1 [Example 543, 2-amino-4-[(3-methylphenylcarbamoyl)-piperazin-1-yl]-6-(4-cyano-phenyl)-pyrido[3,2-d]pyrimidine] | 30 | – |
| CC(C)(C)OC(=O)N1CCC(Nc2nc(N)nc3ccc(-c4ccc(F)cc4)nc23)CC1 [Example 461, 2-amino-4-[1-(tert-butoxycarbonyl)piperid-4-ylamino]-6-(4-fluorophenyl)-pyrido[3,2-d]pyrimidine] | 4000 | – |
| CC(C)(C)OC(=O)NCC(=O)N1CCN(c2nc(N)nc3ccc(-c4ccc(F)cc4)nc23)CC1 [Example 434, 2-amino-4-{4-[N-(tert-butoxycarbonyl)-glycyl]-piperazin-1-yl}-6-(4-fluorophenyl)-pyrido[3,2-d]pyrimidine] | 93 | – |
| CCc1ccc(-c2ccc3nc(N)nc(N4CCN(C(=O)COc5ccc(Cl)cc5)CC4)c3n2)cc1 [Example 508, 2-amino-4-[N-(4-chlorophenoxyacetyl)-piperazin-1-yl]-6-(4-ethylphenyl)-pyrido(3,2-d)pyrimidine] | 12 | – |
| COCC(=O)N1CCN(c2nc(N)nc3ccc(-c4ccc(F)cc4)nc23)CC1 [Example 462, 2-amino-4-[4-(methoxyacetyl)piperazin-1-yl]-6-(4-fluorophenyl)-pyrido[3,2-d]pyrimidine] | 400 | – |
| COc1ccc(-c2ccc3nc(N)nc(N4CCN(C(=O)COc5ccc(Cl)cc5)CC4)c3n2)cc1C [Example 509, 2-amino-4-[N-(4-chlorophenoxyacetyl)-piperazin-1-yl]-6-(3-methyl-4-methoxyphenyl)-pyrido(3,2-d)pyrimidine] | 31 | – |
| CC(C)N(C(=O)N1CCN(c2nc(N)nc3ccc(-c4ccc(F)cc4)nc23)CC1)C(C)C [Example 465, 2-amino-4-[4-(diisopropylcarbamoyl)piperazin-1-yl]-6-(4-fluorophenyl)-pyrido[3,2-d]pyrimidine] | 3000 | – |
| COc1c(C)cc(-c2ccc3nc(N)nc(N4CCN(C(=O)COc5ccc(Cl)cc5)CC4)c3n2)cc1C [Example 502, 2-amino-4-[N-(4-chlorophenoxyacetyl)-piperazin-1-yl]-6-(3,5-dimethyl-4-methoxyphenyl)-pyrido(3,2-d)pyrimidine] | 78 | – |
| COc1ccc(-c2ccc3nc(N)nc(N4CCN(C(=O)COc5ccc(Cl)cc5)CC4)c3n2)cn1 [Example 410, 2-amino-4-[4-(4-chlorophenoxyacetyl)piperazin-1-yl]-6-(2-methoxypyridin-5-yl)pyrido-[3,2-d]pyrimidine] | 9 | – |
| Cc1cccc(NC(=O)N2CCN(c3nc(N)nc4ccc(-c5cccc(C#N)c5)nc34)CC2)c1 [Example 545, 2-amino-4-[(3-methylphenylcarbamoyl)-piperazin-1-yl]-6-(3-cyanophenyl)-pyrido[3,2-d]pyrimidine] | 30 | – |
| Nc1nc(N2CCN(CC(=O)OCc3ccc(Cl)cc3)CC2)c2nc(-c3ccc(F)cc3)ccc2n1 [Example 475, {4-[2-amino-6-(4-fluorophenyl)-pyrido[3,2-d]pyrimidin-4-yl]-piperazin-1-yl}-acetic acid 4-chloro-benzyl ester] | 4200 | – |
| Cc1cccc(NC(=O)N2CCN(c3nc(N)nc4ccc(-c5c(F)cc(F)cc5F)nc34)CC2)c1 [Example 551, 2-amino-4-[(3-methylphenylcarbamoyl)-piperazin-1-yl]-6-(2,4,6-trifluoro-phenyl)-pyrido[3,2-d]pyrimidine] | 500 | – |
| Nc1nc(N2CCN(C(=O)COc3ccc(Cl)cc3)CC2)c2nc(-c3cccc(Cl)c3Cl)ccc2n1 [Example 425, 2-amino-4-[4-(4-chlorophenoxyacetyl)piperazin-1-yl]-6-(2,3-dichlorophenyl)-pyrido-[3,2-d]pyrimidine] | 300 | – |
| Nc1nc(N2CCN(C(=O)COc3ccc(Cl)cc3)CC2)c2nc(-c3ccc(Cl)cc3)ccc2n1 [Example 405, 2-amino-4-[4-(4-chlorophenoxyacetyl)piperazin-1-yl]-6-(4-chlorophenyl)pyrido-[3,2-d]pyrimidine] | 50 | – |
| Nc1nc(N2CCN(C(=O)COc3ccc(Cl)cc3)CC2)c2nc(-c3ccsc3)ccc2n1 [Example 403, 2-amino-4-[4-(4-chlorophenoxyacetyl)piperazin-1-yl]-6-(thiophen-3-yl)pyrido-[3,2-d]pyrimidine] | 40 | – |
| Nc1nc(N2CCN(C(=O)COc3ccc(Cl)cc3)CC2)c2nc(-c3ccc(Cl)cc3Cl)ccc2n1 [Example 427, 2-amino-4-[4-(4-chlorophenoxyacetyl)piperazin-1-yl]-6-(2,4-dichlorophenyl)-pyrido-[3,2-d]pyrimidine] | 300 | – |
| COc1ccc(-c2ccc3nc(Nc4ccc(F)c(Cl)c4)nc(N4CCN(C(=O)Nc5cccc(C)c5)CC4)c3n2)cc1OC [Example 92] | – | IC50 [2, 4]: 1200 nM |
| Nc1nc(N2CCN(C(=O)COc3ccc4ccccc4c3)CC2)c2nc(-c3ccc(F)cc3)ccc2n1 [Example 383, 2-amino-4-[4-(2-naphthoxyacetyl)piperazin-1-yl]-6-(4-fluorophenyl)-pyrido[3,2-d]pyrimidine] | 500 | – |
| COc1ccc(-c2ccc3nc(N)nc(N4CCN(C(=O)COc5ccccc5)CC4)c3n2)cc1OC [Example 60, 2-amino-4-[(N-phenoxy-acetyl)-piperazin-1-yl]-6-(3,4-dimethoxyphenyl)-pyrido[3,2-d]pyrimidine] | – | IC50 [2, 4]: 53 nM |
| CC(C)C(C(=O)N1CCN(c2nc(N)nc3ccc(-c4ccc(F)cc4)nc23)CC1)c1ccc(Cl)cc1 (stereo not drawn) [Example 467, 2-amino-4-{4-[2-(4-chlorophenyl)-3-methylbutyryl]-piperazin-1-yl}-6-(4-fluorophenyl)-pyrido[3,2-d]pyrimidine] | 4700 | – |
| CC(C)(C)OC(=O)N[C@@H]1CCN(c2nc(N)nc3ccc(-c4ccc(F)cc4)nc23)C1 [Example 575, 2-amino-4-[(R)-3-Boc-amino-pyrrolidin-1-yl]-6-(4-fluorophenyl)-pyrido(3,2-d)pyrimidine] | > 10000 | – |
